Experimental data reported in the supplement of paper PMC10307832.

Tests used:
Experiment in all cases: relative viability (nuclei count vs DMSO), 5 days (fraction); higher = more cells survive
[1] = compound: CC[C@H](CO)Nc1nc(NCc2ccccc2)c2ncn(C(C)C)c2n1 [Seliciclib] + CC(=O)Nc1cccc(-n2c(=O)n(C3CC3)c(=O)c3c(Nc4ccc(I)cc4F)n(C)c(=O)c(C)c32)c1 [Trametinib] (partner 0.02 µM)
Outline: (§1)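 Lung cancer cell lines, seeded in 1536-well plates, were treated the following day by pin tool with a single drug or with five library-drug doses (not always all listed) in √10 steps on top of a fixed anchor-drug dose. Cells were fixed and nuclei stained in one step after 5 days, and nuclei were counted. Relative viability is the nuclei count for treated wells divided by that for vehicle wells, reported as medians of duplicate plates.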

[2] = compound: CC[C@H](CO)Nc1nc(NCc2ccccc2)c2ncn(C(C)C)c2n1 [Seliciclib] + COc1cccc2cc(-c3nc([C@H]4CC[C@H](C(=O)O)CC4)n4ncnc(N)c34)[nH]c12 [OSI-027] (partner 0.5 µM)
Outline: as §1

[3] = compound: CC[C@H](CO)Nc1nc(NCc2ccccc2)c2ncn(C(C)C)c2n1 [Seliciclib] + CS(=O)(=O)CCNCc1ccc(-c2ccc3ncnc(Nc4ccc(OCc5cccc(F)c5)c(Cl)c4)c3c2)o1 [Lapatinib] (partner 2 µM)
Outline: as §1

[4] = compound: CC[C@H](CO)Nc1nc(NCc2ccccc2)c2ncn(C(C)C)c2n1 [Seliciclib] + C[C@]1(O)C[C@@H](c2nc(-c3ccc4ccc(-c5ccccc5)nc4c3)c3c(N)nccn32)C1 [Linsitinib] (partner 1 µM)
Outline: as §1

Cell Line	relative viability ([1]; first compound 0.08 µM)	relative viability ([1]; first compound 0.253 µM)	relative viability ([1]; first compound 0.8 µM)	relative viability ([1]; first compound 2.53 µM)	relative viability ([1]; first compound 8 µM)	relative viability ([2]; first compound 0.08 µM)	relative viability ([2]; first compound 0.253 µM)	relative viability ([2]; first compound 0.8 µM)	relative viability ([2]; first compound 2.53 µM)	relative viability ([2]; first compound 8 µM)	relative viability ([3]; first compound 0.08 µM)	relative viability ([3]; first compound 0.253 µM)	relative viability ([3]; first compound 0.8 µM)	relative viability ([3]; first compound 2.53 µM)	relative viability ([3]; first compound 8 µM)	relative viability ([4]; first compound 0.08 µM)	relative viability ([4]; first compound 0.253 µM)	relative viability ([4]; first compound 0.8 µM)	relative viability ([4]; first compound 2.53 µM)	relative viability ([4]; first compound 8 µM)
NCI-H1666	0.829	0.761	0.792	0.849	0.75	0.817	0.899	0.939	0.622	0.734	0.722	0.8	0.48	0.474	0.476	0.769	0.862	0.662	0.875	0.514
NCI-H1734	0.717	0.528	0.677	0.664	0.572	0.513	0.413	0.565	0.435	0.452	1.12	0.974	1.08	0.955	0.945	0.951	0.819	0.824	1.02	0.775
NCI-H1755	0.804	0.658	0.757	0.776	0.71	0.633	0.714	0.738	0.515	0.691	1.02	1.02	1.02	0.963	1.03	0.982	1.02	0.978	1.02	0.993
NCI-H1792	0.353	0.329	0.408	–	0.372	0.67	0.769	0.73	–	0.64	0.947	0.889	0.855	0.776	0.846	0.459	0.568	0.521	0.678	0.477
NCI-H1793	0.364	0.433	0.461	0.411	0.291	0.299	0.219	0.252	0.194	0.238	0.888	0.54	0.583	0.77	0.655	0.784	0.545	0.79	1.16	0.743
NCI-H1915	0.315	0.277	0.307	0.292	0.288	0.643	0.636	0.495	0.536	0.423	0.951	1.13	1.02	0.936	0.853	1.11	1.14	1.14	1.12	0.885
NCI-H1944	0.399	0.277	0.428	0.48	0.368	0.442	0.343	0.376	0.26	0.341	0.842	0.788	0.859	0.619	0.449	1.08	1.19	1.09	1.17	0.904
NCI-H1975	0.383	0.215	0.439	0.266	0.334	0.845	0.545	0.839	0.525	0.624	0.867	0.834	0.868	0.759	0.716	1.03	0.865	0.975	0.819	0.6
